Source: paper PMC4963854, “Mapping Protein–Protein Interactions of the Resistance-Related Bacterial Zeta Toxin–Epsilon Antitoxin Complex (ε2ζ2) with High Affinity Peptide Ligands Using Fluorescence Polarization” (Toxins, 2016)
Where two headings read alike, the source gives them in different places. Ends that are not written are not given here. Peptide text beside a SMILES is read from it. * marks the point of attachment. 5FAM = O=C1OC2(c3ccc(O)cc3Oc3cc(O)ccc32)c2ccc(C(=O)*)cc21

Tests used:
[1] = molecular target: T1, Epsilon protein (His6-Epsilon) (Streptococcus pyogenes, UniProt Q57231); experiment: Fluorescence polarization (FP) direct binding assay of fluorescein-labeled peptides to Epsilon
T1 construct: His6 (N); made in house; host or cells: E. coli BL21 (DE3)
T1 sequence (Q57231 1-90): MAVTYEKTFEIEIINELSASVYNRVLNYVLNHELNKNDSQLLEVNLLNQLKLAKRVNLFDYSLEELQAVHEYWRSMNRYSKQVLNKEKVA
Experimental: Binding affinities of the fluorescein-labeled peptides Fluo-(I–III) with Epsilon protein were determined in a fluorescence polarization (FP) assay. For the purpose, 10 nM solutions of each fluorescein-labeled peptide containing different concentrations of Epsilon (from 5 nM to 7.5 µM) were irradiated with polarized light at the excitation wavelength of 470 nm and the polarization of the emitted light was recorded in mP at […] (see Section 4).
Figure 3 Dose-response curve for the binding of Fluo-(I–II) to the Epsilon protein. The fluorescent-labeled peptides Fluo-(I–II) at a concentration of 10 nM were treated with increasing concentrations of Epsilon (from 0.05 nM to 2.5 µM) in 10 mM HEPES assay buffer, pH 7.5, with 0.1% Tween-20. Values are plotted as the means ± standard deviation (n = 3) from three independent experiments.
For fluorescence polarization measurements, peptides were dissolved in DMSO at 10 mM and diluted in 10 mM HEPES (pH 7.5) containing 0.1% Tween-20. The assay was conducted on untreated black 384-well microtiter plates (low volume, non-binding surface, round bottom, non-sterile black polystyrene, Corning B.V. Life Sciences, Nr. 3676, Kennebunk, ME, USA) in a final volume of 10 µL, using 10 mM HEPES (pH 7.5) with 0.1% Tween-20 as a buffer. The final DMSO proportion in the assay was less than 0.1%. The measurements were performed on a SAFIRE II (Tecan) microplate reader, using an excitation wavelength of 470 nm and emission wavelength of 525 nm. The final assay mixtures contained 5 µL fluorescein-labeled peptide (furnishing a final assay concentration of 10 nM), and 5 µL of increasing amounts of Epsilon protein (final concentrations ranging from 0.05 nM to 5 µM). The negative controls comprised 5 µL fluorescein-labeled peptide (maintaining a final assay concentration of 10 nM) and 5 µL 10 mM HEPES buffer (pH 7.5) containing 0.1% Tween-20. To avoid protein aggregation, Tween-20 (0.1% final concentration) was used as a detergent in all experiments. After adding the fluorescent peptide, the plates were centrifuged (2000 min^−1, 3 min) and shaken briefly (2000 rpm for 10 min at room temperature), and polarization of the emitted fluorescence was directly recorded. In every case, the well containing only the fluorescein-labeled peptide was subtracted from the assay well as background. The polarization values (mP) were plotted as a function of the logarithm of the protein concentration. […] All of the experiments were carried out in duplicate in three independent experiments, and the results are expressed as the mean ± standard deviation (SD).

[2] = molecular target: T1, Epsilon protein (His6-Epsilon); experiment: Competitive FP binding assay: acetylated peptides displace fluorescein-labeled peptide from Epsilon; conditions: unlabeled peptide 0.01-100 µM, 10 mM HEPES pH 7.5, 0.1% Tween-20, 384-well, duplicates in three independent experiments ± SD
Text: The fluorescent high-affinity peptide ligands could be the basis for an especially economic and reliable high-throughput assay, if the fluorescence polarization read-out can be used for the screening of potential ligands that are able to bind to Epsilon in a competitive binding assay. For this purpose, we utilized the unlabeled peptides Ac-Ia and Ac-IIb containing the same amino acid sequence as the initial peptides but with their N-terminus modified by the introduction of an acetyl group. The competitive binding assays were performed by using appropriate amounts of Epsilon protein based on the binding affinity, expressed in terms of the KD value, for the labeled peptides Fluo-Ia and Fluo-IIb. In both cases, the protein concentration was set to the KD value and 5-fold the KD value to study the influence of the protein concentration on the IC50-value of every acetylated peptide. Thus, the Epsilon protein (100 nM or 500 nM final concentration) was treated with Fluo-Ia or Fluo-IIb (10 nM final concentration). After incubation, each mixture was treated with different concentrations of the unlabeled peptides Ac-Ia and Ac-IIb, ranging from 0.01 to 100 µM. […] The ability to identify active compounds (hits) from a particular high-throughput screening (HTS) assay depends largely on the suitability or quality of the assay conditions used in the screening. […]
Figure 5 Competitive binding of the fluorescein-labeled peptides Fluo-Ia and Fluo-IIb to the Epsilon protein in 384-well plates. […] Fluorescence polarization was measured on a SAFIRE II (Tecan, Crailsheim, Germany) microplate reader, using an excitation wavelength of 470 nm and emission wavelength of 525 nm. […]
For the competitive binding assays, unlabeled peptides containing the same amino acid sequence as the previous one but with the N-terminal end modified by the introduction of acetyl group were used. […] The measurements were performed on a SAFIRE II microplate reader (Tecan), using an excitation wavelength of 470 nm and emission wavelength of 525 nm. […]

[3] = 10 nM fluorescein-labeled peptide titrated with Epsilon, 10 mM HEPES pH 7.5, 0.1% Tween-20, no NaCl, ex 470 nm/em 525 nm, EC50 taken as KD (Q close to 1), three independent experiments, n = 3 ± SD, SD, read-out: Binding constant KD

| Molecule | Kd [1, 3] | other results |
| --- | --- | --- |
| CC(C)C[C@H](NC(=O)c1ccc2c(c1)C(=O)OC21c2ccc(O)cc2Oc2cc(O)ccc21)C(=O)N[C@@H](CCCNC(=N)N)C(=O)N[C@@H](CO)C(=O)N[C@@H](C)C(=O)N[C@@H](CCC(=O)O)C(=O)N[C@@H](Cc1ccccc1)C(=O)N[C@@H](CCC(=O)O)C(=O)N[C@@H](CCC(=O)O)C(=O)N[C@H](C(=O)N[C@@H](CCC(N)=O)C(=O)O)[C@@H](C)O [Fluo-IIa] (5FAM-LRSAEFEETQ-OH) | 169 ± 16 nM | – |
| CC(C)C[C@H](NC(=O)[C@H](CO)NC(=O)[C@@H](NC(=O)[C@H](CC(=O)O)NC(=O)CNC(=O)c1ccc2c(c1)C(=O)OC21c2ccc(O)cc2Oc2cc(O)ccc21)[C@@H](C)O)C(=O)N[C@@H](CCCNC(=N)N)C(=O)N[C@@H](CO)C(=O)N[C@@H](C)C(=O)N[C@@H](CCC(=O)O)C(=O)N[C@@H](Cc1ccccc1)C(=O)N[C@@H](CCC(=O)O)C(=O)N[C@@H](CCC(=O)O)C(=O)N[C@H](C(=O)N[C@@H](CCC(N)=O)C(=O)O)[C@@H](C)O [Fluo-IIb] (5FAM-GDTSLRSAEFEETQ-OH) | 99.5 ± 12.2 nM | – |
| CC(C)C[C@H](NC(=O)[C@H](CO)NC(=O)[C@@H](NC(=O)[C@H](CC(=O)O)NC(=O)CNC(=O)[C@H](CO)NC(=O)CNC(=O)c1ccc2c(c1)C(=O)OC21c2ccc(O)cc2Oc2cc(O)ccc21)[C@@H](C)O)C(=O)N[C@@H](CCCNC(=N)N)C(=O)N[C@@H](CO)C(=O)N[C@@H](C)C(=O)N[C@@H](CCC(=O)O)C(=O)N[C@@H](Cc1ccccc1)C(=O)N[C@@H](CCC(=O)O)C(=O)N[C@@H](CCC(=O)O)C(=O)N[C@H](C(=O)N[C@@H](CCC(N)=O)C(=O)O)[C@@H](C)O [Fluo-IIc] (5FAM-GSGDTSLRSAEFEETQ-OH) | 134 ± 15 nM | – |
| CC[C@H](C)[C@H](NC(=O)[C@H](CC(C)C)NC(=O)[C@H](CCC(=O)O)NC(=O)[C@H](CCC(=O)O)NC(=O)[C@H](Cc1c[nH]cn1)NC(=O)[C@H](CC(N)=O)NC(=O)[C@H](CC(=O)O)NC(=O)[C@H](CC(N)=O)NC(=O)[C@H](CC(C)C)NC(=O)c1ccc2c(c1)C(=O)OC21c2ccc(O)cc2Oc2cc(O)ccc21)C(=O)N[C@@H](CCC(N)=O)C(=O)O [Fluo-Ia] (5FAM-LNDNHEELIQ-OH) | 74.5 ± 10.5 nM | Kd ([1]; 10 nM Fluo-Ia, 10 mM HEPES pH 7.5, 0.1% Tween-20, plus 10 mM NaCl, read-out: Binding constant in presence of 10 mM NaCl): 105 nM |
| CC[C@H](C)[C@H](NC(=O)[C@H](CC(C)C)NC(=O)[C@H](CCC(=O)O)NC(=O)[C@H](CCC(=O)O)NC(=O)[C@H](Cc1c[nH]cn1)NC(=O)[C@H](CC(N)=O)NC(=O)[C@H](CC(=O)O)NC(=O)[C@H](CC(N)=O)NC(=O)[C@H](CC(C)C)NC(=O)[C@H](CCCNC(=N)N)NC(=O)[C@H](CC(N)=O)NC(=O)[C@H](CCC(=O)O)NC(=O)[C@H](Cc1ccccc1)NC(=O)c1ccc2c(c1)C(=O)OC21c2ccc(O)cc2Oc2cc(O)ccc21)C(=O)N[C@@H](CCC(N)=O)C(=O)O [Fluo-Ib] (5FAM-FENRLNDNHEELIQ-OH) | 89.5 ± 13.9 nM | – |
| CC[C@H](C)[C@H](NC(=O)[C@H](CC(C)C)NC(=O)[C@H](CCC(=O)O)NC(=O)[C@H](CCC(=O)O)NC(=O)[C@H](Cc1c[nH]cn1)NC(=O)[C@H](CC(N)=O)NC(=O)[C@H](CC(C)C)NC(=O)[C@H](CC(N)=O)NC(=O)[C@H](CC(=O)O)NC(=O)c1ccc2c(c1)C(=O)OC21c2ccc(O)cc2Oc2cc(O)ccc21)C(=O)N[C@@H](CCC(N)=O)C(=O)O [Fluo-Ie] (5FAM-DNLNHEELIQ-OH; C-terminus assumed) | 175 ± 8.9 nM | ΔmP (dynamic range of polarization) ([1]; 10 nM fluorescein-labeled peptide titrated with Epsilon, 10 mM HEPES pH 7.5, 0.1% Tween-20): 115 |
| Ac-GDTSLRSAEFEETQ [Ac-IIb] | – | IC50 ([2]; 500 nM Epsilon, 10 nM Fluo-IIb, read-out: IC50, competition with Fluo-IIb, 500 nM Epsilon): 15300 ± 2500 nM |
| Ac-LNDNHEELIQ [Ac-Ia] | – | IC50 ([2]; 100 nM Epsilon, 10 nM Fluo-Ia, read-out: IC50, competition with Fluo-Ia, 100 nM Epsilon): 18600 ± 4640 nM; IC50 ([2]; 500 nM Epsilon, 10 nM Fluo-Ia, read-out: IC50, competition with Fluo-Ia, 500 nM Epsilon): 51800 ± 7400 nM |
